Test results from US20200069592A1, “HSP90 INHIBITOR ORAL FORMULATIONS AND RELATED METHODS” (Samus Therapeutics, Inc., priority 2017, published 2020).

Key:
[1] = Plasma pharmacokinetics after single oral dose in ORA-Plus or SyrSpend SF (Example 6), LC-MS/MS; format: in vivo, Sprague Dawley rats; conditions: for AUC % Extrap / Cl_F / Vz_F / AUC(0-inf) / AUC(0-t) / Cmax / Tmax / half-life: rat plasma; for % AUC0-last test vs reference: rats, ratio of group averages; for AUC(0-inf) / AUC(0-t) / Cmax / Tmax / half-life: female, rat, plasma, po
[2] = Tolerability (body weight, toxicity, maximum tolerated dose) in the Example 5 rat study; format: in vivo; conditions: free base
Method: Ninety-four total animals were observed thereafter. The parenteral administration is performed by tail vein injection.

[3] = Plasma pharmacokinetics after single PO or IV administration (Example 5), LC-MS/MS; conditions: for Tmax / AUC(0-t) / Cmax: female, rat, plasma, free base; for Tmax: Tmax (hr) Mean ± StdDev; for AUC(0-t): AUC0-last (hr*ng/mL) Mean ± StdDev; for Cmax: Cmax (ng/mL) Mean ± StdDev
Method: The animals used in this study were female Sprague Dawley Rats physiologically normal. At the time of receipt, mice were 200-225 g in weight. […] Ninety-four total animals were observed thereafter. The parenteral administration is performed by tail vein injection.
Compound 2 was provided in free base form and stored at −20° C., protected from light. Compound 2 was formulated in dosage form immediately prior to use. For oral administration of Compound 2 in ORA-Plus® drinking solution, Compound 2 was suspended in drinking solution ORA-Plus® (Perrigo; Minneapolis, Minn.). First, a mortar and pestle were used to smooth out the Compound 2 powder, then a small amount of ORA-Plus® was added, and next, the mixture was triturated to a thick, smooth paste. The remainder of the ORA-Plus® was added by geometric dilution. The Compound 2 free base and ORA-Plus® mixture was dispensed in a tight, light resistant amber bottle with appropriate labeling. This mixture was shaken well before using, protected from light and kept refrigerated if dosing was delayed. For oral administration of Compound 2 in citric acid buffer with Captisol®, Compound 2 free base powder was dissolved or suspended into 30% Captisol® (Cydex Pharmaceuticals; Lawrence, Kans.) in 60 mM citrate buffer (pH˜4.2) (citric acid and sodium citrate dehydrate (Sigma-Aldrich; St. Louis Mo.)) in sterile water) to each group's working concentration. […] A magnetic stir-bar was used to mix dosing solution, followed by sonication. For intravenous administration, Compound 2 free base powder was dissolved into 15% Captisol® in 5 mM citrate buffer (pH˜4.2) to each group's working concentration. A magnetic stirbar was used to mix dosing solution, followed by sonication. IV dosing solution of Compound 2 free base was filtered with a 0.2 m PVDF filter (Pall Life Sciences; Port Washington, N.Y.) prior to administration.
Dose levels of Compound 1 were based on the free base, not the salt.
Animals were randomized using random equilibration of body weights on Day 1 into one of 19 study groups, as shown in Table 23 (Groups 1-19), with 5 animals in each group, except for the 4 animals in Group 19. Body weights were collected Days 1, 2, 3, and/or 4 to accommodate data collection of staggered groups. Gross observations of body weight were noted during the course of the study.

[4] = G1: free base, 24 mg/kg single oral dose, ORA-plus
[5] = G2: free base, 48 mg/kg single oral dose, ORA-plus, n = 4
[6] = G7: free base, 24 mg/kg single oral dose, SyrSpend, n = 4
[7] = G8: free base, 48 mg/kg single oral dose, SyrSpend
[8] = Sprague Dawley, 24 mg/kg, G1: free base, 24 mg/kg single oral dose, ORA-plus
[9] = Sprague Dawley, 48 mg/kg, G2: free base, 48 mg/kg single oral dose, ORA-plus
[10] = Sprague Dawley, 48 mg/kg, G2: free base, 48 mg/kg single oral dose, ORA-plus, n = 4
[11] = Sprague-Dawley, 24 mg/kg, G7: free base, 24 mg/kg single oral dose, SyrSpend
[12] = Sprague-Dawley, 24 mg/kg, G7: free base, 24 mg/kg single oral dose, SyrSpend, n = 4
[13] = Sprague-Dawley, 48 mg/kg, G8: free base, 48 mg/kg single oral dose, SyrSpend
[14] = 24 mg/kg PO, Group 1 (ORA-plus) relative to Group 5 (citrate buffer-Captisol)
[15] = 36 mg/kg PO, Group 2 (ORA-plus) relative to Group 6 (citrate buffer-Captisol)
[16] = 48 mg/kg PO, Group 3 (ORA-plus) relative to Group 7 (citrate buffer-Captisol)
[17] = 60 mg/kg PO, Group 4 (ORA-plus) relative to Group 8 (citrate buffer-Captisol)
[18] = Sprague Dawley, po, 24 mg/kg, Group 5: 24 mg/kg PO, 60 mM Citric acid buffer + 30% Captisol
[19] = Sprague Dawley, po, 36 mg/kg, Group 2: 36 mg/kg PO, ORA-Plus
[20] = Sprague Dawley, po, 36 mg/kg, Group 6: 36 mg/kg PO, 60 mM Citric acid buffer + 30% Captisol
[21] = Sprague Dawley, po, 48 mg/kg, Group 3: 48 mg/kg PO, ORA-Plus
[22] = Sprague Dawley, po, 48 mg/kg, Group 7: 48 mg/kg PO, 60 mM Citric acid buffer + 30% Captisol
[23] = Sprague Dawley, po, 60 mg/kg, Group 4: 60 mg/kg PO, ORA-Plus
[24] = Sprague Dawley, po, 60 mg/kg, Group 8: 60 mg/kg PO, 60 mM Citric acid buffer + 30% Captisol
[25] = Sprague-Dawley, iv, 12 mg/kg, Group 9: 12 mg/kg IV, 5 mM Citric acid buffer + 15% Captisol
[26] = Sprague-Dawley, iv, 24 mg/kg, Group 10: 24 mg/kg IV, 5 mM Citric acid buffer + 15% Captisol
[27] = Sprague-Dawley, po, 24 mg/kg, Group 1: 24 mg/kg PO, ORA-Plus, single dose

Question: With `CC(C)(C)CNCCn1c(Sc2cc3c(cc2I)OCO3)nc2c(N)ncnc21` [Compound 2] as the molecule, how does the “AUC % Extrap” value [1, 4] read?
Answer: 2.77 ± 0.30%

Question: And the Cl_F [1, 4]?
Answer: 249.8 ± 24.2 mL/min/kg

Question: What about the Vz_F [1, 4] of the same molecule?
Answer: 50.18 ± 39.85 L/kg

Question: What about the “AUC % Extrap” value [1, 5] of the same molecule?
Answer: 6.22 ± 6.79 %

Question: And the Cl_F [1, 5]?
Answer: 177.2 ± 65.5 mL/min/kg

Question: And the Vz_F [1, 5]?
Answer: 38.84 ± 10.64 L/kg

Question: And the “AUC % Extrap” value [1, 6]?
Answer: 6.89 ± 3.49 %

Question: And the Cl_F [1, 6]?
Answer: 369.7 ± 105 mL/min/kg

Question: And the Vz_F [1, 6]?
Answer: 88.96 ± 44.19 L/kg

Question: What about the “AUC % Extrap” value [1, 7] of the same molecule?
Answer: 1.71 ± 1.37%

Question: What about the Cl_F [1, 7] of the same molecule?
Answer: 136 ± 105 mL/min/kg

Question: And the Vz_F [1, 7]?
Answer: 44.20 ± 37.62 L/kg

Question: What about the “% AUC0-last test vs reference” value ([1]; Group 1 (24 mg/kg FB ORA-plus) vs Group 3 (24 mg/kg 2HCl ORA-plus)) of the same molecule?
Answer: 121.69%

Question: What about the “% AUC0-last test vs reference” value ([1]; Group 1 (24 mg/kg FB ORA-plus) vs Group 4 (48 mg/kg 2HCl ORA-plus)) of the same molecule?
Answer: 24.79%

Question: What about the “% AUC0-last test vs reference” value ([1]; Group 1 (24 mg/kg FB ORA-plus) vs Group 7 (24 mg/kg FB SyrSpend)) of the same molecule?
Answer: 123.40%

Question: What about the “% AUC0-last test vs reference” value ([1]; Group 1 (24 mg/kg FB ORA-plus) vs Group 9 (24 mg/kg 2HCl SyrSpend)) of the same molecule?
Answer: 133.31%

Question: And the “% AUC0-last test vs reference” value ([1]; Group 2 (48 mg/kg FB ORA-plus) vs Group 4 (48 mg/kg 2HCl ORA-plus))?
Answer: 70.46%

Question: What about the “% AUC0-last test vs reference” value ([1]; Group 2 (48 mg/kg FB ORA-plus) vs Group 8 (48 mg/kg FB SyrSpend)) of the same molecule?
Answer: 54.72%

Question: What about the “% AUC0-last test vs reference” value ([1]; Group 2 (48 mg/kg FB ORA-plus) vs Group 10 (48 mg/kg 2HCl SyrSpend)) of the same molecule?
Answer: 51.93%

Question: What about the “% AUC0-last test vs reference” value ([1]; Group 7 (24 mg/kg FB SyrSpend) vs Group 9 (24 mg/kg 2HCl SyrSpend)) of the same molecule?
Answer: 108.03%

Question: And the “% AUC0-last test vs reference” value ([1]; Group 8 (48 mg/kg FB SyrSpend) vs Group 10 (48 mg/kg 2HCl SyrSpend))?
Answer: 94.91%

Question: And the AUC(0-inf) [1, 8]?
Answer: 1610 ± 156 ng·h/mL

Question: What about the AUC(0-t) [1, 8] of the same molecule?
Answer: 1570 ± 152 ng·h/mL

Question: What about the Cmax [1, 8] of the same molecule?
Answer: 579 ± 108 ng/mL

Question: And the Tmax [1, 8]?
Answer: 1.4 ± 0.55 h

Question: What about the half-life [1, 8] of the same molecule?
Answer: 2.36 ± 1.98 h

Question: And the AUC(0-t) [1, 9]?
Answer: 4460 ± 2110 ng·h/mL

Question: And the Cmax [1, 9]?
Answer: 803 ± 278 ng/mL

Question: And the Tmax [1, 9]?
Answer: 2.8 ± 1.64 h

Question: And the AUC(0-inf) [1, 10]?
Answer: 5060 ± 2070 ng·h/mL

Question: What about the half-life [1, 10] of the same molecule?
Answer: 2.61 ± 0.44 h

Question: And the AUC(0-t) [1, 11]?
Answer: 1270 ± 524 ng·h/mL

Question: What about the Cmax [1, 11] of the same molecule?
Answer: 371 ± 196 ng/mL

Question: What about the Tmax [1, 11] of the same molecule?
Answer: 1 h

Question: What about the AUC(0-inf) [1, 12] of the same molecule?
Answer: 1180 ± 451 ng·h/mL

Question: What about the half-life [1, 12] of the same molecule?
Answer: 2.78 ± 1.13 h

Question: What about the AUC(0-inf) [1, 13] of the same molecule?
Answer: 8080 ± 4090 ng·h/mL

Question: What about the AUC(0-t) [1, 13] of the same molecule?
Answer: 8140 ± 3550 ng·h/mL

Question: What about the Cmax [1, 13] of the same molecule?
Answer: 1030 ± 421 ng/mL

Question: What about the Tmax [1, 13] of the same molecule?
Answer: 3.4 ± 1.95 h

Question: And the half-life [1, 13]?
Answer: 3.56 ± 1.03 h

Question: And the “Time point up to which all animals had quantifiable plasma levels” value ([1]; single oral dose, free base or 2HCl, ORA-Plus or SyrSpend)?
Answer: ≥ 8 h

Question: And the MTD ([2]; female, Sprague Dawley, rat, in vivo, iv, intravenously administered, rats, read-out: Maximum tolerated dose)?
Answer: 24 mg/kg

Question: What about the “Body weight and toxicity” value ([2]; higher oral doses (above 24 mg/kg), data not shown) of the same molecule?
Answer: minimal effects on body weight and limited toxicity

Question: And the “% AUC0-last (hr*ng/mL) ORA vs Citrate Mean ± StdDev” value (“% AUC0-last (hr*ng/mL) ORA” below) [3, 14]?
Answer: 48.63 ± 15.03%

Question: What about the “% Cmax (ng/mL) ORA vs Citrate Mean ± StdDev” value (from here on “% Cmax (ng/mL) ORA”) [3, 14] of the same molecule?
Answer: 47.65 ± 16.52%

Question: And the “% AUC0-last (hr*ng/mL) ORA” value [3, 15]?
Answer: 91.18 +/− 72.46%

Question: And the “% Cmax (ng/mL) ORA” value [3, 15]?
Answer: 89.97 +/− 82.63%

Question: What about the “% AUC0-last (hr*ng/mL) ORA” value [3, 16] of the same molecule?
Answer: 94.75 +/− 64.83%

Question: And the “% Cmax (ng/mL) ORA” value [3, 16]?
Answer: 99.04 +/− 80.01%

Question: And the “% AUC0-last (hr*ng/mL) ORA” value [3, 17]?
Answer: 75.93 +/− 63.12%

Question: And the “% Cmax (ng/mL) ORA” value [3, 17]?
Answer: 83.99 +/− 73.13%

Question: And the Tmax ([3]; Sprague Dawley, iv, 12 mg/kg, Group 9: 12 mg/kg IV, 5 mM Citric acid buffer + 15% Captisol)?
Answer: 0.25 h

Question: What about the AUC(0-t) [3, 18] of the same molecule?
Answer: 2010 ± 176 ng·h/mL

Question: What about the Cmax [3, 18] of the same molecule?
Answer: 685 ± 109 ng/mL

Question: What about the Tmax [3, 18] of the same molecule?
Answer: 1.8 ± 0.45 h

Question: And the AUC(0-t) [3, 19]?
Answer: 2680 ± 811 ng·h/mL

Question: What about the AUC(0-t) [3, 20] of the same molecule?
Answer: 2940 ± 1570 ng·h/mL

Question: And the Cmax [3, 19]?
Answer: 747 ± 238 ng/mL

Question: And the Cmax [3, 20]?
Answer: 831 ± 618 ng/mL

Question: And the Tmax [3, 19]?
Answer: 1.5 ± 1.41 h

Question: And the Tmax [3, 20]?
Answer: 2.4 ± 2.07 h

Question: What about the AUC(0-t) [3, 21] of the same molecule?
Answer: 5220 ± 2760 ng·h/mL

Question: What about the AUC(0-t) [3, 22] of the same molecule?
Answer: 5510 ± 2590 ng·h/mL

Question: What about the Cmax [3, 21] of the same molecule?
Answer: 1240 ± 519 ng/mL

Question: And the Cmax [3, 22]?
Answer: 1400 ± 626 ng/mL

Question: What about the Tmax [3, 21] of the same molecule?
Answer: 2.7 ± 1.79 h

Question: What about the Tmax [3, 22] of the same molecule?
Answer: 1.4 ± 0.55 h

Question: What about the AUC(0-t) [3, 23] of the same molecule?
Answer: 3560 ± 906 ng·h/mL

Question: And the AUC(0-t) [3, 24]?
Answer: 4750 ± 3070 ng·h/mL

Question: What about the Cmax [3, 23] of the same molecule?
Answer: 909 ± 302 ng/mL

Question: What about the Cmax [3, 24] of the same molecule?
Answer: 1080 ± 584 ng/mL

Question: And the Tmax [3, 23]?
Answer: 3 ± 2.74 h

Question: And the Tmax [3, 24]?
Answer: 4.4 ± 1.67 h

Question: What about the AUC(0-t) [3, 25] of the same molecule?
Answer: 3390 ± 402 ng·h/mL

Question: And the Cmax [3, 25]?
Answer: 2360 ± 92.7 ng/mL

Question: And the AUC(0-t) [3, 26]?
Answer: 7500 ± 552 ng·h/mL

Question: And the Cmax [3, 26]?
Answer: 5110 ± 416 ng/mL

Question: What about the Tmax [3, 26] of the same molecule?
Answer: 0.25 h

Question: What about the AUC(0-t) [3, 27] of the same molecule?
Answer: 975 ± 304 ng·h/mL

Question: What about the Cmax [3, 27] of the same molecule?
Answer: 321 ± 111 ng/mL

Question: And the Tmax [3, 27]?
Answer: 0.9 ± 0.22 h
